Reference: patent publication US10160755B2 (Plexxikon Inc., priority 2015, dated 2018)

Target: T1, FLT3-ITD (Homo sapiens, UniProt P36888)
T1 construct: FLT3-ITD; Invitrogen #PV6190
T1 sequence (P36888 1-993): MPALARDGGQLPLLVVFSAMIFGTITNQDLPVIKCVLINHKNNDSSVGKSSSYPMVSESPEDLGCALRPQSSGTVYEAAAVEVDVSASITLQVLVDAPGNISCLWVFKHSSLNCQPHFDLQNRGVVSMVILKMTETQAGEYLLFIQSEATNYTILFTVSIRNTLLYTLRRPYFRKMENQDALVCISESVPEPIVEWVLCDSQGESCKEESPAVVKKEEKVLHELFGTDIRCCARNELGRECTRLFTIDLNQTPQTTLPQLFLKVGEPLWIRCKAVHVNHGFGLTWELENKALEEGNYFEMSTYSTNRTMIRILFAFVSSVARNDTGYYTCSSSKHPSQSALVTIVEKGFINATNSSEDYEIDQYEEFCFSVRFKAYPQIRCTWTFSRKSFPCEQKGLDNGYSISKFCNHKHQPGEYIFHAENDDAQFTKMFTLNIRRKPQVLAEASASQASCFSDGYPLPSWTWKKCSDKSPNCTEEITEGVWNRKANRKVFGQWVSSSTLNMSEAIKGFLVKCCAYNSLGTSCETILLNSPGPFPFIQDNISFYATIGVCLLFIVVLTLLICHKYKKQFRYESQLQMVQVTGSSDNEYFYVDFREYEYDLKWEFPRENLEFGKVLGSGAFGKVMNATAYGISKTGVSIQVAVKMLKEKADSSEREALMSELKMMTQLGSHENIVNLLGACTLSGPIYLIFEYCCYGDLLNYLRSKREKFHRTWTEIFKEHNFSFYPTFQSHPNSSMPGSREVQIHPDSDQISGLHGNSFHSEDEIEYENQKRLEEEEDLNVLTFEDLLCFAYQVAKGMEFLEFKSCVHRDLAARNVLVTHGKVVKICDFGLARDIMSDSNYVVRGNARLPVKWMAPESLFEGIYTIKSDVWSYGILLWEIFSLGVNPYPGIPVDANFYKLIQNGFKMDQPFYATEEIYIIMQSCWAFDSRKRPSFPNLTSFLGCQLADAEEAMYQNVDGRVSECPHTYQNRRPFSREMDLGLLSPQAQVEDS
Test: FLT3-ITD biochemical kinase assay (AlphaScreen)
Outline: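 Compounds were tested against recombinant enzyme using AlphaScreen detection of tyrosine-phosphorylated biotin-poly(Glu4-Tyr) (30 nM final). The ATP concentration differed by construct: 10 μM for D835Y, 100 μM for ITD.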

IC50, 0.0001 to 1 µM:
COc1cc(-c2cc3c(-c4ccc5ncn(C(C)(C)C)c5c4)c[nH]c3nn2)ccn1 [P-315, 5-(3-tert-butylbenzimidazol-5-yl)-3-(2-methoxy-4-pyridyl)-7H-pyrrolo[2,3-c]pyridazine]
c1cc(N2CCOCC2)ncc1-c1cnc2[nH]cc(-c3ccc4ncn(C5CCCNC5)c4c3)c2n1 (stereo not shown) [P-325, 4-[5-[7-[3-(3-piperidyl)benzimidazol-5-yl]-5H-pyrrolo[2,3-b]pyrazin-2-yl]-2-pyridyl]morpholine]
CC(C)(C)n1cnc2ccc(-c3n[nH]c4ncc(-c5ccnc(N6CCOCC6)c5)cc34)cc21 [P-297, 4-[4-[3-(3-tert-butylbenzimidazol-5-yl)-1H-pyrazolo[3,4-b]pyridin-5-yl]-2-pyridyl]morpholine]
O=S1(=O)CCCN1c1cc(-c2cnc3[nH]cc(-c4ccc5ncn(C6CCCNC6)c5c4)c3c2)ccn1 (stereo not shown) [P-311, 2-[4-[3-[3-(3-piperidyl)benzimidazol-5-yl]-1H-pyrrolo[2,3-b]pyridin-5-yl]-2-pyridyl]-1,2-thiazolidine 1,1-dioxide]
Cc1ncc(C#Cc2cnc3[nH]cc(-c4ccc5ncn(C(C)(C)C)c5c4)c3c2)cn1 [P-383, 1-tert-butyl-6-[5-[2-(2-methylpyrimidin-5-yl)ethynyl]-1H-pyrrolo[2,3-b]pyridin-3-yl]benzimidazole]
CC(C)(C)n1cnc2ccc(-c3c[nH]c4ncc(-c5ccc(N6CCOCC6)nc5)cc34)cc21 [P-322, 4-[5-[3-(3-tert-butylbenzimidazol-5-yl)-1H-pyrrolo[2,3-b]pyridin-5-yl]-2-pyridyl]morpholine]
CN1CCN(c2ccc(-c3cnc4[nH]cc(-c5ccc6ncn(C7CCCNC7)c6c5)c4n3)cc2)CC1 (stereo not shown) [P-344, 2-[4-(4-methylpiperazin-1-yl)phenyl]-7-[3-(3-piperidyl)benzimidazol-5-yl]-5H-pyrrolo[2,3-b]pyrazine]
O=S1(=O)CCCN1c1ccc(-c2cnc3[nH]cc(-c4ccc5ncn(C6CCCNC6)c5c4)c3c2)cc1 (stereo not shown) [P-319, 2-[4-[3-[3-(3-piperidyl)benzimidazol-5-yl]-1H-pyrrolo[2,3-b]pyridin-5-yl]phenyl]-1,2-thiazolidine 1,1-dioxide]
Cc1ncc(-c2cnc3[nH]cc(-c4ccc5ncn(C(C)(C)C)c5c4)c3n2)cn1 [P-289, 7-(3-tert-butylbenzimidazol-5-yl)-2-(2-methylpyrimidin-5-yl)-5H-pyrrolo[2,3-b]pyrazine]
COc1cnc2[nH]cc(-c3ccc4ncn(C5CCCNC5)c4c3)c2c1 (stereo not shown) [P-079, 5-methoxy-3-[3-(3-piperidyl)benzimidazol-5-yl]-1H-pyrrolo[2,3-b]pyridine]
Cc1ncc(C#Cc2cnc3[nH]cc(-c4ccc5ncn(C6CCCNC6)c5c4)c3n2)cn1 (stereo not shown) [P-285, 2-[2-(2-methylpyrimidin-5-yl)ethynyl]-7-[3-(3-piperidyl)benzimidazol-5-yl]-5H-pyrrolo[2,3-b]pyrazine]
CC(C)(C)n1cnc2ccc(-c3c[nH]c4ncc(-c5ccnc(N6CCCCC6)c5)nc34)cc21 [P-338, 7-(3-tert-butylbenzimidazol-5-yl)-2-[2-(1-piperidyl)-4-pyridyl]-5H-pyrrolo[2,3-b]pyrazine]
c1nc(N2CCOCC2)ncc1-c1cnc2[nH]cc(-c3ccc4ncn(C5CCCNC5)c4c3)c2c1 (stereo not shown) [P-277, 4-[5-[3-[3-(3-piperidyl)benzimidazol-5-yl]-1H-pyrrolo[2,3-b]pyridin-5-yl]pyrimidin-2-yl]morpholine]
COc1cc(C#Cc2cnc3[nH]cc(-c4ccc5ncn(C(C)(C)C)c5c4)c3n2)ccn1 [P-279, 7-(1-(tert-butyl)-1H-benzo[d]imidazol-6-yl)-2-((2-methoxypyridin-4-yl)ethynyl)-5H-pyrrolo[2,3-b]pyrazine]
CCN1CCN(c2cccc(-c3cnc4[nH]cc(-c5ccc6ncn(C7CCCNC7)c6c5)c4n3)c2)CC1 (stereo not shown) [P-329, 2-[3-(4-ethylpiperazin-1-yl)phenyl]-7-[3-(3-piperidyl)benzimidazol-5-yl]-5H-pyrrolo[2,3-b]pyrazine]
CCN1CCN(c2ccc(-c3cnc4[nH]cc(-c5ccc6ncn(C(C)(C)C)c6c5)c4n3)cc2)CC1 [P-358, 7-(3-tert-butylbenzimidazol-5-yl)-2-[4-(4-ethylpiperazin-1-yl)phenyl]-5H-pyrrolo[2,3-b]pyrazine]
COc1ncc(-c2cnc3[nH]cc(-c4ccc5ncn(C6CCCNC6)c5c4)c3c2)cn1 (stereo not shown) [P-276, 5-(2-methoxypyrimidin-5-yl)-3-[3-(3-piperidyl)benzimidazol-5-yl]-1H-pyrrolo[2,3-b]pyridine]
CCN1CCN(c2cccc(-c3cnc4[nH]cc(-c5ccc6ncn(C(C)(C)C)c6c5)c4n3)c2)CC1 [P-330, 7-(3-tert-butylbenzimidazol-5-yl)-2-[3-(4-ethylpiperazin-1-yl)phenyl]-5H-pyrrolo[2,3-b]pyrazine]
Cn1cnc2ccc(-c3c[nH]c4nnc(Cl)cc34)cc21 [P-313, 3-chloro-5-(3-methylbenzimidazol-5-yl)-7H-pyrrolo[2,3-c]pyridazine]
COc1cc(C#Cc2cnc3[nH]cc(-c4ccc5ncn(C6CCCNC6)c5c4)c3n2)ccn1 (stereo not shown) [P-280, 2-((2-methoxypyridin-4-yl)ethynyl)-7-(1-(piperidin-3-yl)-1H-benzo[d]imidazol-6-yl)-5H-pyrrolo[2,3-b]pyrazine]
CN1CCN(c2cccc(-c3cnc4[nH]cc(-c5ccc6ncn(C7CCCNC7)c6c5)c4n3)c2)CC1 (stereo not shown) [P-332, 2-[3-(4-methylpiperazin-1-yl)phenyl]-7-[3-(3-piperidyl)benzimidazol-5-yl]-5H-pyrrolo[2,3-b]pyrazine]
c1cc(N2CCOCC2)ncc1-c1cnc2[nH]cc(-c3ccc4ncn(C5CCCNC5)c4c3)c2c1 (stereo not shown) [P-321, 4-[5-[3-[3-(3-piperidyl)benzimidazol-5-yl]-1H-pyrrolo[2,3-b]pyridin-5-yl]-2-pyridyl]morpholine]
CC(C)(C)n1cnc2ccc(-c3c[nH]c4ncc(-c5ccc(N6CCCCC6)cc5)nc34)cc21 [P-345, 7-(3-tert-butylbenzimidazol-5-yl)-2-[4-(1-piperidyl)phenyl]-5H-pyrrolo[2,3-b]pyrazine]
CC(C)(C)n1cnc2ccc(-c3c[nH]c4ncc(-c5cccc(N6CCCCC6)c5)nc34)cc21 [P-336, 7-(3-tert-butylbenzimidazol-5-yl)-2-[3-(1-piperidyl)phenyl]-5H-pyrrolo[2,3-b]pyrazine]
CC(C)(C)n1cnc2ccc(-c3c[nH]c4ncc(-c5ccnc(C#N)c5)cc34)cc21 [P-291, 4-[3-(3-tert-butylbenzimidazol-5-yl)-1H-pyrrolo[2,3-b]pyridin-5-yl]pyridine-2-carbonitrile]
Cc1cc(C#Cc2cnc3[nH]cc(-c4ccc5ncn(C(C)(C)C)c5c4)c3n2)cc(C)n1 [P-282, 7-(3-tert-butylbenzimidazol-5-yl)-2-[2-(2,6-dimethyl-4-pyridyl)ethynyl]-5H-pyrrolo[2,3-b]pyrazine]
CC(C)(C)n1cnc2ccc(-c3c[nH]c4ncc(-c5ccc(N6CCC(F)(F)CC6)nc5)nc34)cc21 [P-356, 7-(3-tert-butylbenzimidazol-5-yl)-2-[6-(4,4-difluoro-1-piperidyl)-3-pyridyl]-5H-pyrrolo[2,3-b]pyrazine]
CN1CCN(c2ccc(-c3cnc4[nH]cc(-c5ccc6ncn(C(C)(C)C)c6c5)c4n3)cc2)CC1 [P-341, 7-(3-tert-butylbenzimidazol-5-yl)-2-[4-(4-methylpiperazin-1-yl)phenyl]-5H-pyrrolo[2,3-b]pyrazine]
Cc1cc(C#Cc2cnc3[nH]cc(-c4ccc5ncn(C6CCCNC6)c5c4)c3n2)cc(C)n1 (stereo not shown) [P-283, 2-[2-(2,6-dimethyl-4-pyridyl)ethynyl]-7-[3-(3-piperidyl)benzimidazol-5-yl]-5H-pyrrolo[2,3-b]pyrazine]
CC(C)(C)n1cnc2ccc(-c3c[nH]c4nnc(Cl)cc34)cc21 [P-314, 5-(3-tert-butylbenzimidazol-5-yl)-3-chloro-7H-pyrrolo[2,3-c]pyridazine]
CCN1CCN(c2cc(-c3cnc4[nH]cc(-c5ccc6ncn(C(C)(C)C)c6c5)c4n3)ccn2)CC1 [P-328, 7-(3-tert-butylbenzimidazol-5-yl)-2-[2-(4-ethylpiperazin-1-yl)-4-pyridyl]-5H-pyrrolo[2,3-b]pyrazine]
